The text below walks through data of US20080009480A1, “CYCLOPENTA[b][1,4]DIAZEPINO[6,7,1-hi]INDOLES AND DERIVATIVES” (Wyeth, priority 2000, published 2008).

Data set [1] concerns the target T1, human 5-hydroxytryptamine2C (h5HT2C) receptor (Homo sapiens, UniProt P28335).
T1 sequence (P28335 33-458): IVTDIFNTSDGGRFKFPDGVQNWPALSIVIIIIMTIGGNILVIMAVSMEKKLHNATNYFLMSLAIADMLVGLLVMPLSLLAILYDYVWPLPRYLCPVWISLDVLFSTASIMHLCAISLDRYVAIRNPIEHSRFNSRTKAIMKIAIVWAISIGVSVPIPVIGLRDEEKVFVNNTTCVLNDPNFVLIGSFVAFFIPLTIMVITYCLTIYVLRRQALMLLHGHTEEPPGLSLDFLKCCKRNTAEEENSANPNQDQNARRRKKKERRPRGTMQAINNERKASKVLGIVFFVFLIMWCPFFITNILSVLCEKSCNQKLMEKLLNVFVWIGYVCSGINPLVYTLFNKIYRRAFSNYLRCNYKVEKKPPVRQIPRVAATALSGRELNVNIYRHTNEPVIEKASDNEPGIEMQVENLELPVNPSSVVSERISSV
The experiment in a line: 5HT2C receptor binding test procedure ([125I]DOI displacement, CHO cell membranes). Conditions: for Ki: 5-HT2C Affinity DOI/Agonist Binding (Ki, μM).

The next data set concerns the target T2, human 5-HT2C receptor (Homo sapiens, UniProt P28335).
T2 construct: expressed in transfected cells; host or cells: CHO cells
T2 sequence (P28335 33-458): T1 sequence (P28335 33-458)
The experiment in a line: Stimulation of [3H] inositol monophosphate production by 5HT2C agonists in transfected CHO cells. The format is cell-based. Conditions: read-out: 5HT2C % Emax (5HT, 100%).

The next data set relates to male Sprague-Dawley rats. The experiment in a line: Effects of compounds on feeding behavior in rats (24 hr fast, 2 hour food intake). It counts as in vivo, rat. Conditions: ip, dose giving 50% reduction in food intake. The protocol:
Effects of Compounds on Feeding Behavior in Rats
Eight (8) male Sprague-Dawley rats weighing 150-180 g were separated into individual cages and acclimated to a powdered diet for 2 weeks. During this period and throughout the test procedure, the food cup and the animals were weighed daily. Following the acclimation period, animals were fasted for 24 hours and then injected with either vehicle or one of 4 doses of the test compound. Food intake was assessed at 2 and 24 hours following compound administration. Compounds to be evaluated were injected 1-2× per week until all animals had received all doses of the test compound. The order of doses were chosen using to a modified Latin Square design. Additional studies may be conducted in satieted rats at the start of the dark cycle. Compounds were injected i.p, s.c. or p.o. At the end of the study effects of the test compound on food intake was evaluated using a repeated measures ANOVA. Data were collected were 2 hour food intake (g). Data were subjected to one-way ANOVA with posthoc t-tests to assess group differences. Where appropriate, ED50 values were calculated.

For data set [2] the following is noted: several animal species and humans; Cowen et al. 1995; cited from earlier work.
The conditions of data set [3]: rat; Martin et al. 1989; cited from earlier work.

SMILES strings stand for the structures. pKd, pKi: −log10 of the molar value. Like-named read-outs stand apart in the source and are kept apart here.

As a reminder, the Ki is a measure of affinity in units of concentration, obtained from inhibition or displacement. As usually defined, the melting point is the temperature of the solid-liquid transition. Broadly, the Emax is the maximal effect, on the per cent scale that the assay sets. A word on the pKd: it is −log10 of the Kd, conventionally taken in molar units.

Method for human 5-HT2C receptor: One (1) ml of maintenance medium containing 1 μCi/ml myo-[^3H] inositol was added to each well. After 48 hours labeling, the cells were washed once with 0.5 ml DMEM containing 25 mM HEPES and 10 mM LiCl, then preincubated with the medium for 30 min (antagonists were included in this period if tested). At the end of the preincubation, the medium was removed, the cells were then incubated with test compounds (in presence of antagonists if needed) for 30 min. The reaction was terminated by removal of the incubation solution and addition of 0.5 ml ice-cold 5% PCA, followed by 15 to 30 min incubation on ice. 200 μl of 0.5 M Tes/1.5 M K2CO3 was added to each well to neutralize to pH 7, and plates were left on ice for another 15 to 30 min to precipitate all salts. The liquid and solid phases were separated by centrifugation.
A portion (350 μl) of the upper aqueous phase was applied to Dowex AG-1X8 (formate form, 100-200 mesh) columns. The columns were then washed stepwise with 10 ml of water and 10 ml of 25 mM ammonium formate to remove free myo-[^3H]inositol and deacylated phosphoinositol, respectively. Finally 10 ml of 0.2 M ammonium formate solution was applied to the columns to elute [^3H] inositol monophosphate ([^3H] IP1) directly into scintillationvials.
A 3-parameter logistic function is used to generate estimate of EC50/IC50.

The compound `C[C@@H]1NCCN2c3c1cccc3[C@@H]1CCC[C@@H]12` (relative stereo) [Example 12, rel-(4S,7bS,10aS)-4-Methyl-1,2,3,4,8,9,10,10a-Octahydro-7bH-Cyclopenta[b][1,4]Diazepino[6,7,1-hi]Indole] displayed an inhibitory constant (Ki) in data set [1] ([125I]DOI agonist binding) of more than 5 µM.

`C[C@H]1NCCN2c3c1cccc3[C@@H]1CCC[C@@H]12` (relative stereo) [Example 13, rel-(4R,7bS,10aS)-4-Methyl-1,2,3,4,8,9,10,10a-Octahydro-7bH-Cyclopenta[b][1,4]Diazepino[6,7,1-hi]Indole] gave an inhibition constant (Ki) in data set [1] ([125I]DOI agonist binding) of 0.31 µM.

The compound `CC1CN2c3c(cccc3C3CCCC32)CN1` (single isomer, unassigned) [Example 7] registered a Ki in data set [1] ([125I]DOI agonist binding) of 6 µM.

As for `CC1CN2c3c(cccc3C3CCCC32)CN1` (single isomer, unassigned) [Example 8], in data set [1] ([125I]DOI agonist binding), affinity was put at a Ki of 5.9 µM.

In data set [1] ([125I]DOI agonist binding), `CC1CN2c3c(cccc3C3CCCC32)CN1` (single isomer, unassigned) [Example 9] came in with an inhibition constant (Ki) of 0.91 µM. This Ki lies about 6.5-fold lower than the previous one.

`CC1CN2c3c(cccc3C3CCCC32)CN1` (single isomer, unassigned) [Example 10] yielded a Ki in data set [1] ([125I]DOI agonist binding) of 4.3 µM.

In data set [1] ([125I]DOI agonist binding), `OC[C@H]1CN2c3c(cccc3C3CCCC32)CN1` (single isomer, unassigned) [Example 11] came in with a Ki of 1.9 µM.

Take `c1cc2c3c(c1)c1c(n3CCNC2)CCC1` [Example 1, 1,2,3,4,9,10-Hexahydro-8H-cyclopenta[b][1,4]diazepino[6,7,1-hi]indole]: the melting point is 66 to 68 °C.

For the compound `c1cc2c3c(c1)C1CCCC1N3CCNC2` (stereo not drawn) [Example 2, 1,2,3,4,8,9,10,10a-octahydro-7bH-cyclopenta[b][1,4]diazepino[6,7,1-hi]indole], at human 5-HT2C receptor, the Emax came to 110%. The ED50 in the data set on male Sprague-Dawley rats (Rattus norvegicus, read-out: ED50) came out at 8.05 mg/kg.

As to `c1cc2c3c(c1)[C@@H]1CCC[C@@H]1N3CCNC2` [Example 4A, (7bS,10aS)-1,2,3,4,8,9,10,10a-octahydro-7bH-cyclopenta-[b][1,4]diazepino-[6,7,1-hi]indole], the maximal response (Emax) on human 5-HT2C receptor came to 40%.

Regarding `c1cc2c3c(c1)[C@H]1CCC[C@H]1N3CCNC2` [Example 4B, 7bR,10aR)-1,2,3,4,8,9,10,10a-octahydro-7bH-cyclopenta-[b][1,4]diazepino[6,7,1-hi]indole], the “ED50” value in the data set on male Sprague-Dawley rats is on record as 2.93 mg/kg.

`Cc1cc2c3c(c1)c1c(n3CCNC2)CCC1` [Example 6, 6-Methyl-1,2,3,4,9,10-hexahydro-8H-cyclopenta[b][1,4]diazepino[6,7,1-hi]indole] displayed a melting point of 168 to 170 °C. Besides, in data set [1] (read-out: 5HT2C Affinity DOI/Agonist binding (Ki), [125I]DOI agonist binding), the pKi is 6.01.

For the compound `CSc1ccc2c(c1)C(N1CCN(C)CC1)Cc1ccccc1S2` (stereo not drawn) [Methiothepin, reference compound], in data set [1] (reference compounds, [125I]DOI binding, h5HT2C in CHO membranes, read-out: Ki value and 95% confidence interval), the pKi is 8.34.

Turning to `COc1cc(CC(C)N)c(OC)cc1I` (stereo not drawn) [[^125I] DOI, reference compound], the pKd in data set [1] (read-out: dissociation constant, KD of [125I] DOI at the human serotonin 5HT2C receptor, saturation binding with increasing concentrations of [125I] DOI) is 9.40.

With `Clc1cccc(N2CCNCC2)c1` [mCPP, meta-chlorophenylpiperazine], the “effect on food intake” value in data set [2] was “decreases food intake”. In data set [3], the “effect on conditioned avoidance responding (CAR)” value is given as “block conditioned avoidance responding”.
